In the first assay the target is T1, human CCR10 (Homo sapiens, UniProt P46092).
T1 construct: expressed in transfected cells; host or cells: KJMGER8 cell (cell line derived from Namalwa cell); expression induced with 10 nmol/L β-estradiol
T1 sequence (P46092 1-362): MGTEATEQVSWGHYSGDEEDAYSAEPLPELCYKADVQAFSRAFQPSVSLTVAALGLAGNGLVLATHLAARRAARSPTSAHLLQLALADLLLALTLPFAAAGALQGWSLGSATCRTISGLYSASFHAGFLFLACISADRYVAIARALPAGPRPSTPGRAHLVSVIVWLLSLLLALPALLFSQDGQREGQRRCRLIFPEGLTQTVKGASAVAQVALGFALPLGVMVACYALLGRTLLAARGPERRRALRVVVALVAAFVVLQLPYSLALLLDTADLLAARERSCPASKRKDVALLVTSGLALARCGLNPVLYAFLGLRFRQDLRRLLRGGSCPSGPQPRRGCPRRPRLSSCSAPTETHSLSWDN
Put plainly: Calcium assay of human CCR10 (inhibition of CTACK-induced increase in intracellular calcium ion concentration in hCCR10G16 cells). The format is cell-based. Particulars: test compound 100 nmol/L; human recombinant CTACK; hCCR10G16 cells (KJMGER8/Namalwa-derived, Gα16 co-expressed); FLIPR or FDSS. The method, then: A CCR10-inducible expression plasmid was produced according to a known method (“Analytical Biochemistry”, 2006, vol. 400, page 163). A DNA encoding human CCR10 was obtained by PCR. Using human chromosomal DNA (100 ng; manufactured by Clontech Laboratories, Inc.) as a template, a synthetic DNA having the sequences shown by SEQ ID NOs: 1 and 2 as a human CCR10 cDNA specific primer, and Pyrobest DNA Polymerase (manufactured by TAKARA SHUZO CO. LTD.) as an enzyme, a DNA encoding human CCR10 was obtained by PCR. As a buffer solution for PCR, the buffer solution attached to the enzyme was diluted 10-fold with deionized water and used. Using Thermal Cycler DNA Engine (manufactured by MJ Research), PCR was performed by 35 cycles of reactions composed of an incubation at 90° C. for 2 min, at 94° C. for 30 seconds, at an anneal temperature of 58° C. for 30 seconds, and at 72° C. for 1 min.
The amplified PCR fragment was cleaved with HindIII and NotI, then a human CCR10 DNA fragment was recovered by an agarose gel electrophoresis method. The fragment was incorporated in between the corresponding restriction enzyme sites (HindIII-NotI) of an inducible expression vector, whereby a human CCR10-inducible expression plasmid were prepared.
Using a primer specific to the sequence of the plasmid (synthetic DNA having the sequences shown by SEQ ID NOs: 3 and 4), the sequence of human CCR10 DNA region was determined. For the determination of the base sequence, DNA sequencer 377 (manufactured by PerkinElmer) and a reaction kit (ABI Prism (registered trade mark) BigDye (registered trade mark) Terminator Cycle Sequencing Ready Reaction kit: manufactured by Applied Biosystems) were used. The sequence of human CCR10 DNA matched with the sequence (NM_016602) registered in GenBank.
Cells for the detection of the signal from human CCR10 by a calcium assay were prepared. Human CCR10-inducible expressing cells whose host cell is KJMGER8 cell (cell line derived from Namalwa cell) were prepared according to a known method (“Analy Biochem”, 2006, vol. 400, page 163). Human CCR10-inducible expression plasmid produced above and Gα16 expression plasmid were co-transfected into KJMGER8 cell by an electroporation method (“Cytotechnology”, 1990, vol. 3, page 133), whereby a signal from human CCR10 could be detected by a calcium assay (hereinafter to be referred to as hCCR10G16 cell). Gα16 expression plasmid was produced by incorporating human Gα16 DNA into expression vector pAMoh (WO03/087366). Induced expression of human CCR10 was performed by cultivating hCCR10G16 cells in the presence of 10 nmol/L β-estradiol (manufactured by Sigma Ltd.) for 24 hr.
Cells expressing human CCR10 induced by the above-mentioned method were suspended in RPMI1640 medium and adjusted to cell density of 1.25×10^6 cells/mL. This mixture was dispensed to a 384 well clear bottom plate (manufactured by Corning Incorporated) at 20 μL/well, and these were incubated at 37° C. for several dozen minutes. A loading buffer prepared according to the protocol attached to FLIPR Calcium 3 assay kit (manufactured by Molecular Device) was dispensed to this plate at 20 μL/well, and the plate was incubated at 37° C. for 60 min. A 33 μmol/L DMSO solution of the test compound was diluted 37-fold with RPMI1640 medium and the resulting solution was added at 5 μL/well, and the mixture was incubated at 37° C. for 30 min. 300 nmol/L human recombinant CTACK (manufactured by R and D Systems) diluted with RPMI1640 medium containing 1 w/v % bovine serum albumin was added at 5 μL/well. Change of the intracellular calcium ion concentration for about 5 min after the addition was measured by FLIPR (manufactured by Molecular Device) or FDSS (manufactured by Hamamatsu Photonics K.K.). The difference between the maximum fluorescence intensity and the minimum fluorescence intensity for 5 min was calculated, and taken as the measurement value (maximum fluorescence intensity−minimum fluorescence intensity). […]
For orientation: A change in cytosolic calcium serves as a functional read-out for many receptors and channels.
For `Cc1cc(F)ccc1Nc1c(C(=O)N2CCC(c3ccccc3)CC2)cnc2c(S(=O)(=O)N=CN(C)C)cnn12` [a-73, N-[7-(4-Fluoro-2-methylphenylamino)-6-(4-phenylpiperidine-1-carbonyl)pyrazolo[1,5-a]pyrimidin-3-ylsulfonyl]-N,N-dimethylformimidamide], the “Inhibitory rate (%) for an increase in calcium ion concentration” value was determined as 68.9%.

The same assay, now with this note: test compound 100 nmol/L; human recombinant CTACK; hCCR10G16 cells (KJMGER8/Namalwa-derived, Gα16 co-expressed); FLIPR or FDSS; read-out: Inhibitory rate (%) for an increase in calcium ion concentration.
In the case of `Cc1ccc(Cl)c(Nc2c(C(=O)N3CCC4(CC3)OCc3ccccc34)cnc3c(S(=O)(=O)NC(=O)C4(C)COC4)cnn23)c1` [a-58, N-{7-(2-Chloro-5-methylphenylamino)-6-[3H-spiro(isobenzofuran-1,4′-piperidine)-1′-carbonyl]pyrazolo[1,5-a]pyrimidin-3-ylsulfonyl}-3-methyloxetane-3-carboxamide], the inhibition at 0.1 µM was greater than 100%.
Same read-out and setting: for `CCONS(=O)(=O)c1cnn2c(Nc3cc(Cl)ccc3Cl)c(C(=O)N3CCC(c4ccc(F)cc4)CC3)cnc12` [a-28, 7-(2,5-Dichlorophenylamino)-N-ethoxy-6-[4-(4-fluorophenyl)piperidine-1-carbonyl]-pyrazolo[1,5-a]pyrimidine-3-sulfonamide] the value was greater than 100%; for `CCNC(=O)NS(=O)(=O)c1cnn2c(Nc3ccc(Cl)cc3C)c(C(=O)N3CCC4(CC3)OCc3ccccc34)cnc12` [a-47, 7-(4-Chloro-2-methylphenylamino)-N-(ethylcarbamoyl)-6-[3H-spiro(isobenzofuran-1,4′-piperidine)-1′-carbonyl]pyrazolo[1,5-a]pyrimidine-3-sulfonamide], greater than 100%.
Same read-out and setting: for `CCC(=O)NS(=O)(=O)c1cnn2c(Nc3ccc(C)cc3Cl)c(C(=O)N3CCC(c4ccc(F)cc4)CC3)cnc12` [a-18, N-{7-(2-Chloro-4-methylphenylamino)-6-[4-(4-fluorophenyl)piperidine-1-carbonyl]pyrazolo[1,5-a]pyrimidin-3-ylsulfonyl}propionamide] the value was 98.3%; for `Cc1cc(F)ccc1Nc1c(C(=O)N2CCC(c3ccccc3)CC2)cnc2c(S(=O)(=O)NS(C)(=O)=O)cnn12` [a-71, 7-(4-Fluoro-2-methylphenylamino)-N-methylsulfonyl-6-(4-phenylpiperidine-1-carbonyl)pyrazolo[1,5-a]pyrimidine-3-sulfonamide], 88.8%; for `CCNC(=O)NS(=O)(=O)c1cnn2c(Nc3cc(Cl)ccc3Cl)c(C(=O)N3CCC(c4ccc(F)cc4)CC3)cnc12` [a-23, 7-(2,5-Dichlorophenylamino)-N-(ethylcarbamoyl)-6-[4-(4-fluorophenyl)piperidine-1-carbonyl]pyrazolo[1,5-a]pyrimidine-3-sulfonamide], 96.7%.
Still for that read-out and setting: for `CCNC(=O)NS(=O)(=O)c1cnn2c(Nc3ccc(C)cc3F)c(C(=O)N3CCC4(CC3)OCc3ccccc34)cnc12` [a-49, 7-(2-Fluoro-4-methylphenylamino)-N-(ethylcarbamoyl)-6-[3H-spiro(isobenzofuran-1,4′-piperidine)-1′-carbonyl]pyrazolo[1,5-a]pyrimidine-3-sulfonamide] the value was greater than 100%.
With `CCNS(=O)(=O)c1cnn2c(Nc3cc(C)ccc3Cl)c(C(=O)N3CCC4(CC3)OCc3ccccc34)cnc12` [a-45, N-Ethyl-7-(2-chloro-5-methylphenylamino)-6-[3H-spiro(isobenzofuran-1,4′-piperidine)-1′-carbonyl]pyrazolo[1,5-a]pyrimidine-3-sulfonamide], the inhibition at 0.1 µM was 80.3%.
On the same count and under the same terms, to `CCC(=O)NS(=O)(=O)c1cnn2c(Nc3cc(C)ccc3Cl)c(C(=O)N3CCC4(CC3)OCc3ccccc34)cnc12` [a-56, N-{7-(2-Chloro-5-methylphenylamino)-6-[3H-spiro(isobenzofuran-1,4′-piperidine)-1′-carbonyl]pyrazolo[1,5-a]pyrimidin-3-ylsulfonyl}propionamide] belongs greater than 100%.
`CCC(=O)NS(=O)(=O)c1cnn2c(Nc3cc(C)ccc3F)c(C(=O)N3CCC(c4ccc(F)cc4)CC3)cnc12` [a-31, N-{7-(2-Fluoro-5-methylphenylamino)-6-[4-(4-fluorophenyl)piperidine-1-carbonyl]pyrazolo[1,5-a]pyrimidin-3-ylsulfonyl}propionamide]: the inhibition at 0.1 µM was greater than 100%.

The values above are taken from patent publication US20140221340A1 (KYOWA HAKKO KIRIN CO., LTD., priority 2011, published 2014).
